Results published in patent US20040039049A1, “Stable amorphous calcium pseudomonate and processes for the preparation thereof” (CHEMAGIS LTD, priority 2002, published 2004).
Values belong to the molecule of their own block, whether it stands above or below them.

Legend:
[1] = Decomposition of pseudomonic acid during the process of preparing the calcium salt; format: physicochemical; settings: for Related Substances (from process) P.A. D / Decomposition Products D.P. I / Decomposition Products D.P. II / Related Substances (from process) P.A. B / Related Substances (from process) P.A. C / Related Substances (from process) P.A. E: before / after preparation of the calcium salt; for Decomposition Products D.P. I / Decomposition Products D.P. II / Related Substances (from process) P.A. B / Related Substances (from process) P.A. C / Related Substances (from process) P.A. E: unit assumed
Experimental: The calcium pseudomonate solution was prepared by a slow addition of solid calcium hydroxide to a suspension of pseudomonic acid in water. The calcium salt formed is gradually dissolved. The almost clear solution is filtered and frozen.
Pseudomonic acid (100 gr.) is suspended in water (1000 ml). The mixture is cooled below 15° C. and calcium hydroxide (ca. 7.0 gr.) is added gradually until the pH is 8. The slightly turbid mixture is filtered and the solution is frozen and lyophilized. The product obtained is crushed and milled to give amorphous calcium pseudomonate in quantitative yield.

[2] = Stability on storage (related substances and decomposition products); format: physicochemical; settings: for Decomposition Products D.P. I / Related Substances (from process) P.A. B / Related Substances (from process) P.A. C / Related Substances (from process) P.A. D / Related Substances (from process) P.A. E: unit assumed
[3] = on storage, prior patents; cited from earlier work
[4] = Repeat of prior-art process (evaporation of solvents); format: physicochemical; settings: prior-art process repeated, regardless of conditions used to distill out the water
Experimental: Process for the preparation of amorphous calcium pseudomonate is described in U.S. Pat. No. 4,916,155, U.S. Pat. No. 5,191,093 and U.S. Pat. No. 5,436,266. A solution of pseudomonic acid is dissolved in a mixture of methanol and water and neutralized to pH 7.1 with calcium oxide. The solution is filtered and the solvents are evaporated under reduced pressure to give solid foam. Trituration of the foam with diethyl ether affords amorphous calcium pseudomonate.
This decomposition occurred regardless of the conditions used to distill out the water.

Related Substances (from process) P.A. D [1]: 1.17 | Decomposition Products D.P. I [1]: 0.58% | Decomposition Products D.P. II [1]: 0.81% | Related Substances (from process) P.A. B [1]: 0.57% | Related Substances (from process) P.A. C [1]: 0.16% | Related Substances (from process) P.A. E [1]: 0.21% | Decomposition during the preparation of the calcium salt (in words) ([1]; process of the present invention): no decomposition
SMILES: C/C(=C\C(=O)OCCCCCCCCC(=O)O)C[C@@H]1OC[C@H](C[C@@H]2O[C@H]2[C@@H](C)[C@H](C)O)[C@@H](O)[C@H]1O [pseudomonic acid, Pseudomonic acid A]

Decomposition on storage (in words) ([2]; stored at an appropriate temperature): did not show decomposition | Decomposition Products D.P. II ([2]; t = 0): 1.00 | Decomposition Products D.P. I ([2]; t = 0): 0.44% | Related Substances (from process) P.A. B ([2]; t = 0): 0.1% | Related Substances (from process) P.A. C ([2]; t = 0): 0.09% | Related Substances (from process) P.A. D ([2]; t = 0): 0.9% | Related Substances (from process) P.A. E ([2]; t = 0): 0.1% | Decomposition Products D.P. II ([2]; t = 18 months (at 2-8° C.)): 1.06 | Decomposition Products D.P. I ([2]; t = 18 months (at 2-8° C.)): 0.62% | Related Substances (from process) P.A. B ([2]; t = 18 months (at 2-8° C.)): 0.18% | Related Substances (from process) P.A. C ([2]; t = 18 months (at 2-8° C.)): 0.08% | Related Substances (from process) P.A. D ([2]; t = 18 months (at 2-8° C.)): 0.97% | Related Substances (from process) P.A. E ([2]; t = 18 months (at 2-8° C.)): 0.09% | Related Substances (from process) P.A. D [1]: 1.25 | Decomposition Products D.P. I [1]: 0.62% | Decomposition Products D.P. II [1]: 1.1% | Related Substances (from process) P.A. B [1]: 0.4% | Related Substances (from process) P.A. C [1]: 0.1% | Related Substances (from process) P.A. E [1]: 0.15% | Decomposition during the evaporation of the solvents (in words) [4]: appreciable decomposition
SMILES: C/C(=C\C(=O)OCCCCCCCCC(=O)[O-])C[C@@H]1OC[C@H](C[C@@H]2O[C@H]2[C@@H](C)[C@H](C)O)[C@@H](O)[C@H]1O.C/C(=C\C(=O)OCCCCCCCCC(=O)[O-])C[C@@H]1OC[C@H](C[C@@H]2O[C@H]2[C@@H](C)[C@H](C)O)[C@@H](O)[C@H]1O.[Ca+2] [amorphous calcium pseudomonate, calcium pseudomonate]
Thermal stability (in words) [3]: thermally labile
